By IC50 is commonly meant the concentration needed to halve the response being measured. The low end stands for greater potency, the high end for weaker potency.

This passage reports IC50 results from patent US5753648A, “Tricyclic benzazepine vasopressin antagonists” (American Cyanamid Company, priority 1996, dated 1998).

SMILES strings stand for the structures.

Assay [1] deals with Rat Hepatic V1 Receptors (Rattus norvegicus, UniProt P30560). Kind of assay: Binding Assay to Rat Hepatic V1 Receptors. In outline:
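Rat liver plasma membranes (20 μg protein, sucrose-gradient isolated) were incubated 120 min at room temperature with [3H]vasopressin (0.8 nM as added) in Tris-HCl buffer with MgCl2, BSA and protease inhibitors. Nonspecific binding was defined with unlabeled phenylalanylvasopressin. Bound radioactivity was collected by filtration and counted by scintillation, and IC50 was from competition analysis.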

Assay [2] deals with T1, Rat Kidney Medullary V2 Receptors (Rattus norvegicus, UniProt Q00788).
T1 construct: Medullary tissues from rat kidneys are dissected out; from tissue; host or cells: rat kidney medulla membranes
T1 sequence (Q00788 whole entry): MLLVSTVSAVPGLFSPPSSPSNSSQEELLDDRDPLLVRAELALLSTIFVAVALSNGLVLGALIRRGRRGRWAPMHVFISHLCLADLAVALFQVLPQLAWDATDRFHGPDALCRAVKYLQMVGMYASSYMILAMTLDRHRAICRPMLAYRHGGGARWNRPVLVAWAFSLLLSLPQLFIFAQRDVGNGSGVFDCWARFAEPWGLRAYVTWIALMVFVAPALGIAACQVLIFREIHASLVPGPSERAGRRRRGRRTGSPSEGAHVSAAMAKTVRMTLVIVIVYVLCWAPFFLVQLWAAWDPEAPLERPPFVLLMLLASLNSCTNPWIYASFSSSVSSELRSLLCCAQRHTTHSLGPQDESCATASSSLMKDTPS
Kind of assay: biochemical. The assay is classed as binding.

Rat Hepatic V1 Receptors, sequence (P30560 whole entry): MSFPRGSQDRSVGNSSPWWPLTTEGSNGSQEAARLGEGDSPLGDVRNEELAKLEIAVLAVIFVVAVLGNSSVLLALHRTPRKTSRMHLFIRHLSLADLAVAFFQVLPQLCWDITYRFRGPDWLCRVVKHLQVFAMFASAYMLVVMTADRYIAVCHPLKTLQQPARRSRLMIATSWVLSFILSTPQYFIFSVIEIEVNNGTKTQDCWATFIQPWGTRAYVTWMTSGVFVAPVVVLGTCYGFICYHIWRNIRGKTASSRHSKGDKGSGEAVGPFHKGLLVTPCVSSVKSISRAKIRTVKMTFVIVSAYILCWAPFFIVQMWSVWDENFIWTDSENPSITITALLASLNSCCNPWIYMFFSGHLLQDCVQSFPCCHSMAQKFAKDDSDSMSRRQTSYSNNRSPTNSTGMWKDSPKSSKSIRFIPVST

Consider `Cc1ccc(F)cc1C(=O)Nc1ccc(C(=O)N2Cc3cccn3Cc3ccccc32)cn1` [Example 1, N-[5-(5H-Pyrrolo[2,1-c][1,4]benzodiazetin-10(11H)-ylcarbonyl)-2-pyridinyl]-5-fluoro-2-methylbenzamide], for which the IC50 came out at 33 nM in assay [1] and 4 nM in assay [2].
